Measured values taken from patent US8779146B2, “Cilostazol cocrystals and compositions” (Nuformix Limited, priority 2010, dated 2014).
Like-named read-outs stand apart in the source and are kept apart here.

What was measured:
[1] = Gravimetric vapour sorption (GVS) moisture sorption isotherm; type: physicochemical; settings: for moisture reversibly adsorbed: across the 0-90% relative humidity range at 25° C. under nitrogen; for solid form by XRPD analysis after completion of the isotherm: after GVS cycle 0-90% RH; for solid form by XRPD analysis after completion of the isotherm / hygroscopicity: 25° C.; for hygroscopicity: conclusion from GVS isotherm, 0-90% RH
Experimental: Sorption isotherms were obtained using a SMS DVS Intrinsic moisture sorption analyser, controlled by DVS Intrinsic Control software v1.0.0.30. The sample temperature was maintained at 25° C. by the instrument controls. The humidity was controlled by mixing streams of dry and wet nitrogen, with a total flow rate of 200 ml·min^−1 The relative humidity was measured by a calibrated Rotronic probe (dynamic range of 1.0-100% RH), located near the sample. The weight change, (mass relaxation) of the sample as a function of % RH was constantly monitored by the microbalance (accuracy ±0.005 mg).
Typically 5-20 mg of sample was placed in a tared mesh stainless steel basket under ambient conditions. The sample was loaded and unloaded at 40% RH and 25° C. (typical room conditions). A moisture sorption isotherm was performed as outlined in Table 1 (2 scans giving 1 complete cycle). The standard isotherm was performed at 25° C. at 10% RH intervals over a 0.5-90% RH range. Data analysis was undertaken in Microsoft Excel using DVS Analysis Suite v6.0.0.7. The sample was recovered after completion of the isotherm and re-analyzed by XRPD.

[2] = dog, in vivo, po, 100 mg
Experimental: (§1) A crossover study was carried out using 5 male beagle dogs with a washout period of 5 days between each treatment. Prior to dosing, the dogs were fasted overnight. The capsules were accurately filled with the amount of cilostazol or the corresponding cocrystal that was equivalent to 100 mg cilostazol. The capsules were orally administered to the dogs followed by about 10 mL of water. Food (about 250 g) was provided 4 hours post-dose to all animals.
(§2) Blood samples were collected at pre-dose, 15 and 30 minutes, and 1, 2, 3, 4, 6, 8, 10, 12 and 24 hour post-dose (12 time points) following oral dose administration. Approximately 0.8 ml of whole blood was withdrawn from the cephalic vein and placed in labelled tubes containing sodium heparin as anticoagulant (20 μL of 400 IU/mL sodium heparin solution per mL of blood). Plasma was separated by centrifuging the whole blood at about 2500 g for 10 minutes at 4° C. Separated plasma was stored below −70° C. until analysis.
(§3) A fit for purpose LC-MS/MS method was used for the determination of the cilostazol concentrations in the plasma samples. Pharmacokinetic parameters from individual samples were calculated using the non-compartmental analysis tool of the WinNonlin® software (version 5.2). The area under the plasma concentration curve (AUC) was calculated using the linear trapezoidal rule. Peak plasma concentration (Cmax) and the time taken to reach the peak plasma concentration (Tmax) were the observed values.

[3] = cited from earlier work
[4] = Pharmacokinetic study, oral capsule, crossover, fasted beagle dogs; settings: male, dog, plasma, 100 mg
Experimental: as §1, §2, §3

[5] = low solubility, high permeability drug; cited from earlier work

Structure (SMILES)	moisture reversibly adsorbed [1]	solid form by XRPD analysis after completion of the isotherm [1]	hygroscopicity [1]	AUC [2]	Cmax [2]	Tmax [2]	solubility ([3]; in 0.1N HCl)	solubility ([3]; in 0.1N NaOH)	solubility ([3]; in ethanol)	solubility ([3]; in methanol)	solubility ([3]; in water)	AUC [4]	Cmax [4]	Tmax [4]	BCS class [5]
O.O=C(O)c1cc(O)ccc1O.O=C1CCc2cc(OCCCCc3nnnn3C3CCCCC3)ccc2N1	0.1 % w/w	unchanged	not hygroscopic	–	–	–	–	–	–	–	–	–	–	–	–
O=C(O)c1cc(O)ccc1O.O=C1CCc2cc(OCCCCc3nnnn3C3CCCCC3)ccc2N1 [1:1 cilostazol gentisic acid cocrystal]	< 0.3 % w/w	unchanged	not hygroscopic	1216.37 ng·h/mL	471.42 ng/mL	1.00 h	–	–	–	–	–	–	–	–	–
O=C1CCc2cc(OCCCCc3nnnn3C3CCCCC3)ccc2N1 [Cilostazol, 6-[4-(1-cyclohexyl-1H-tetrazol-5-yl)butoxy]-3,4-dihydro-2(1H)-quinolinone]	–	–	–	–	–	–	practically insoluble	practically insoluble	slightly soluble	slightly soluble	practically insoluble	371 ng·h/mL	81.5 ng/mL	2 h	Class II
